Laboratory results reported in patent US6495491B1, “Substituted cyanophenyl uracils” (Bayer Aktiengesellschaft, priority 1995, dated 2002).

Key:
Type in all cases: in vivo
Abutilon [1] = assay: Pre-emergence test, Abutilon; details: application rates between 8 and 125 g/ha, after three weeks
Procedure: (§1) Solvent: 5 parts by weight of acetone
(§2) Emulsifier: 1 part by weight of alkylaryl polyglycol ether
(§3) To produce a suitable preparation of active compound, 1 part by weight of active compound is mixed with the stated amount of solvent, the stated amount of emulsifier is added and the concentrate is diluted with water to the desired concentration.
(§4) Seeds of the test plants are sown in normal soil. After 24 hours, the soil is watered or sprayed with the preparation of the active compound. It is advantageous to keep the amount of water per unit area constant. The concentration of the active compound in the preparation is immaterial, only the amount of active compound applied per unit area matters.
(§5) After three weeks, the degree of damage to the plants is rated in % damage by comparison with the development of the untreated control.
(§6) 0%=no effect (like untreated control)

Chenopodium [2] = assay: Pre-emergence test, Chenopodium; details: application rates between 8 and 125 g/ha, after three weeks
Procedure: as §1, §2, §3, §4, §5, §6

Matricaria [3] = assay: Pre-emergence test, Matricaria; details: application rates between 8 and 125 g/ha, after three weeks
Procedure: as §1, §2, §3, §4, §5, §6

wheat = assay: Pre-emergence test, crop tolerance wheat; details: application rates between 8 and 125 g/ha, after three weeks
Procedure: as §1, §2, §3, §4, §5, §6

Abutilon [4] = assay: Post-emergence test, Abutilon; details: application rates between 30 and 500 g/ha, after three weeks
Procedure: as §1, §2, §3
(§7) Test plants which have a height of 5-15 cm are sprayed with the preparation of the active compound in such a way as to apply the particular amounts of active compound desired per unit area. The concentration of the spray liquor is chosen so that the particular desired amounts of active compound are applied in 2000 l of water/ha.
as §5, §6

Chenopodium [5] = assay: Post-emergence test, Chenopodium; details: application rates between 30 and 500 g/ha, after three weeks
Procedure: as §1, §2, §3, §7, §5, §6

Matricaria [6] = assay: Post-emergence test, Matricaria; details: application rates between 30 and 500 g/ha, after three weeks
Procedure: as §1, §2, §3, §7, §5, §6

**Q.** For `COc1cc(-n2c(=O)cc(C(F)(F)F)n(C)c2=O)c(F)cc1C#N` [Example 2, 1-(4-cyano-2-fluoro-5-methoxy-phenyl)-3,6-dihydro-2,6-dioxo-3-methyl-4-trifluoromethyl-1(2H)-pyrimidine], which “degree of damage to the plants, % damage” value (Abutilon [1]) is on record?
**A.** 100%

**Q.** And the “degree of damage to the plants, % damage” value (Chenopodium [2])?
**A.** 100 %/o

**Q.** And the “degree of damage to the plants, % damage” value (Matricaria [3])?
**A.** 100 %/o

**Q.** What about the “degree of damage to the plants, % damage (tolerance by crops)” value (wheat) of the same molecule?
**A.** 0%

**Q.** And the “degree of damage to the plants, % damage” value (Abutilon [4])?
**A.** 100%

**Q.** And the “degree of damage to the plants, % damage” value (Chenopodium [5])?
**A.** 100%

**Q.** What about the “degree of damage to the plants, % damage” value (Matricaria [6]) of the same molecule?
**A.** 100%
